Seven compounds from patent publication US9259482B2, “Conjugates of polymers having a therapeutically active agent and an angiogenesis targeting moiety attached thereto and uses thereof in the treatment of angiogenesis related diseases” (Ramot at Tel-Aviv University Ltd., priority 2008, dated 2016) can be followed below.

Read-outs that look alike come from different tables or passages of the source. Non-standard residues stand in square brackets, D forms with d.

The subject of assay [1] is HUVEC. The assay can be described thus: Capillary-like tube formation assay. In kind it is cell-based, human. The following applies: equivalent concentrations of 10 nM (PTX) and 19 nM (E-[c(RGDfk)2]), conjugate with 5 mol % E-[c(RGDfk)2], 2.6 mol % PTX, FIG. 16B. The procedure: The anti-angiogenesis activity of the conjugates was evaluated by the effect of the conjugates on the ability of HUVEC cells to form capillary-like tube structures.
The surface of 24-well plates was coated with Matrigel matrix (50 μl/well) (BD Biosciences, USA) on ice and was then allowed to polymerize at 37° C. for 30 minutes. HUVEC (3×10^4 cells) were challenged with the tested compounds, and were seeded on coated plates in the presence of complete EGM-2 medium. After 8 hours of incubation (37° C.; 5% CO2), wells were imaged using Nikon TE2000E inverted microscope integrated with Nikon DS5 cooled CCD camera by 4× objective, brightfield technique. During the tube formation assay endothelial cells directionally migrate to align, branch and form polygonal networks (i.e. tube like structures). The extent of capillary-like tube structures is inversely proportional to the anti-angiogenesis activity of the compounds.

Assay [2] deals with HUVEC. The assay can be described thus: Endothelial cell adhesion assay on fibrinogen coated plates. The following applies: for effect of free peptides on HUVEC adhesion: free peptide at 50 μM; for inhibition of HUVEC adhesion to fibrinogen: with a similar amount of PTX. In kind it is cell-based, human. The procedure:
The ability of E-[c(RGDfk)2] and E-c(RGDfk) moieties (SEQ ID NOs: 2 and 41) in the conjugates to inhibit endothelial attachment to cellular matrix after conjugation, was assessed using an adhesion assay. Flat bottom 96-well culture plates (Nunc, Denmark) were coated with 0.5 μg/well fibrinogen overnight at 4° C. After washing three times with Phosphate buffered saline (PBS), the wells were blocked with 1% bovine serum albumin (BSA) for 1 hour at 37° C. and washed three times again with PBS. HUVEC were harvested in phosphate-buffered saline (137 mM NaCl, 2.7 mM KCl, 4.3 mM Na2HPO4, 1.4 mM KH2PO4, pH 7.3) with 2.5 mM EDTA and resuspended in EBM-2 serum-free media (Clonetics). HUVEC were incubated for 30 minutes, at room temperature, with the tested compounds. The treated HUVEC were plated at 5×10^4 cells per well and were allowed to attach for 1 hour at 37° C. After incubation, the unattached cells were removed by rinsing the wells with PBS. The attached cells were fixed with 3.7% formaldehyde, stained with 0.5% crystal violet and were imaged using Nikon TE2000E inverted microscope integrated with Nikon DS5 cooled CCD camera by 4× objective, brightfield technique. The number of attached cells was quantified with NIH ImageJ processing and analysis software. Non-specific binding was determined by adhesion of HUVEC cells, which were not incubated with any of the tested compounds, to BSA-coated plates.

Assay [3] has as its system HUVEC. Description: Migration assay of HUVEC towards VEGF. The note with it: equivalent concentrations of 100 nM PTX, conjugate with 5 mol % E-[c(RGDfk)2], 2.6 mol % PTX, FIG. 14. In kind it is cell-based, human. Here is the method: The anti-angiogenesis activity of the conjugates was evaluated by examining the effect of the conjugates on the ability of HUVEC to migrate toward the Vascular Endothelial Growth Factor (VEGF).
Cell migration assay was performed using modified 8 μm Boyden chambers Transwells® (Costar Inc., USA) coated with 10 μg/ml fibronectin HUVEC (15×10^4 cells/100 μl) were challenged with the tested compounds that were added to the upper chamber of the transwells for 2 hours. Following incubation, cells were allowed to migrate to the underside of the chamber for 4 hours in the presence or absence of VEGF (20 ng/ml) in the lower chamber. Cells were then fixed and stained (Hema 3 Stain System; Fisher Diagnostics, USA). The stained migrated cells were imaged using Nikon TE2000E inverted microscope integrated with Nikon DS5 cooled CCD camera by 10× objective, brightfield illumination. Migrated cells from the captured images per membrane were counted using NIH image software. Migration was normalized to the percent of migration toward VEGF of HUVEC which were not incubated with any compound. The extent of migration is inversely proportional to the anti-angiogenesis activity of the compounds.

The subject of assay [4] is HUVEC. Description: cells. In kind it is cell-based, human. The following applies: for IC50: HUVEC. Here is the method: (§1) The anti-angiogenesis and anti-proliferative activity of the conjugates described herein was evaluated by the effect of the conjugates on the proliferation of HUVEC, U87 and PANC02 cells.
(§2) HUVEC were plated onto 24-well plate (1×10^4 cells/well) in endothelial cell basal medium 2 (EBM-2; Cambrex, USA) supplemented with 5% fetal bovine serum (FBS). Following 24 hours of incubation (37° C.; 5% CO2) medium was replaced with Endothelial cell growth medium-2 (EGM-2; Cambrex, USA). U87 and PANC02 cells were plated onto 96 well plate (2×10^3 cells/well) in DMEM supplemented with 5% FBS and incubated for 24 hours (37° C.; 5% CO2). Following 24 hours of incubation the medium was replaced with DMEM containing 10% FBS. Cells were challenged with the tested compounds at serial concentrations for 72 hours. After incubation the number of HUVEC were counted by Coulter Counter and U87, and PANC02 cells were counted by XTT respectively.

Assay [5] deals with U87 human glioblastoma cells. The assay can be described thus: Cell proliferation assay, U87. In kind it is cell-based. Here is the method: as §1, §2
The test system of assay [6] is PANC02 murine pancreatic tumor cells. The assay can be described thus: Cell proliferation assay, PANC02. In kind it is cell-based. The procedure:
as §1, §2

For assay [7], the target named is T1, αvβ3 integrin receptor (Homo sapiens, UniProt P05106+P06756).
T1 construct: endogenous in cells; host or cells: HUVEC
T1 sequence (P06756 31-889 limits assumed): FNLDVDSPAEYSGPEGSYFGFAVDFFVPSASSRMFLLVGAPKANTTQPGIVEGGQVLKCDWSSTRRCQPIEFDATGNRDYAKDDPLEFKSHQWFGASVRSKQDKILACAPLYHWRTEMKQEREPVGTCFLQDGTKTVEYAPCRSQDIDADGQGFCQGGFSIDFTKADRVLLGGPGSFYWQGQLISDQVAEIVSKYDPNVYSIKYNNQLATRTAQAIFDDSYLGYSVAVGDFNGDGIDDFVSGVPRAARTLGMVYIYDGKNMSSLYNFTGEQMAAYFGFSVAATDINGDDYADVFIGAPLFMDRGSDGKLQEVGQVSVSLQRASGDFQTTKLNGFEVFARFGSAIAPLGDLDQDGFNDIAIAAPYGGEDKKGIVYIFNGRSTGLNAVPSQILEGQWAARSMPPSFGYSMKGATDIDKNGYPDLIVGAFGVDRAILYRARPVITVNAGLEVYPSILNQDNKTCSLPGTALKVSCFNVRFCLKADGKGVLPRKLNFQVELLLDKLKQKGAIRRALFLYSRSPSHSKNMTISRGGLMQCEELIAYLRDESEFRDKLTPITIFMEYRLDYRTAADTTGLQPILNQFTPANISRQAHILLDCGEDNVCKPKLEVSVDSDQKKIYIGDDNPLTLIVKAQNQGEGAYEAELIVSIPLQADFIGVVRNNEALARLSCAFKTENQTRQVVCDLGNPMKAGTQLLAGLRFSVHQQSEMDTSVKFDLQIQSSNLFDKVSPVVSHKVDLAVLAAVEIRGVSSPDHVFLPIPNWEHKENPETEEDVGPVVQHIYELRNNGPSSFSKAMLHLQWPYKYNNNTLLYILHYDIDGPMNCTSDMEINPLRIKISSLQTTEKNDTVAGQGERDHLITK
T1 sequence (P06756 891-1048 limits assumed): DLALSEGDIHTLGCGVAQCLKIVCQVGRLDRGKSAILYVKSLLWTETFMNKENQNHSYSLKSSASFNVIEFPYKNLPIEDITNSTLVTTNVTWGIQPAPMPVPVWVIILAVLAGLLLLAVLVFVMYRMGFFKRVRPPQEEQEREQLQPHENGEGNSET
T1 sequence (P05106 27-788): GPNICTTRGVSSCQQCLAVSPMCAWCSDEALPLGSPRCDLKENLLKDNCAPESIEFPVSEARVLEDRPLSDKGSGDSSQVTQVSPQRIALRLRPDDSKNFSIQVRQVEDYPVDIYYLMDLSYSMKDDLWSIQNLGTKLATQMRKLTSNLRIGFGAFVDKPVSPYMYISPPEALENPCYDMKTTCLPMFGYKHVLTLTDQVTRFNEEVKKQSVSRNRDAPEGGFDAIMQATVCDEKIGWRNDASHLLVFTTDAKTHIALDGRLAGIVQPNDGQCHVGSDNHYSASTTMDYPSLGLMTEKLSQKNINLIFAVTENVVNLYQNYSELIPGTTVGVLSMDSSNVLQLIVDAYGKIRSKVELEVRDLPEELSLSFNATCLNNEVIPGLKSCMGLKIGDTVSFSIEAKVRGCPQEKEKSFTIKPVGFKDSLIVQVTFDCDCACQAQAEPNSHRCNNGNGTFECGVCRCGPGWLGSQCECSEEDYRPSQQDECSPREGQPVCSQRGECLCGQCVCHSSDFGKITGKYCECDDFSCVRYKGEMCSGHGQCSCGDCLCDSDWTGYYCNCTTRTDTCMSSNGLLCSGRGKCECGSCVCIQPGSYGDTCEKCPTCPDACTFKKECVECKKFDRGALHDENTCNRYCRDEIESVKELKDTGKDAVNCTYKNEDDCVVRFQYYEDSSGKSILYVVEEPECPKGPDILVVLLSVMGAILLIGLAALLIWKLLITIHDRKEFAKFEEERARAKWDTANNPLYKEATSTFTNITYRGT
The assay can be described thus: αvβ3 interaction with fluorescently labeled conjugates in HUVEC. The assay is classed as cell-based. Here is the method:
A fluorescence probe, Oregon Green-cadaverine (OG), was conjugated to PGA conjugates through the free carboxylic groups (see Example 5 for synthesis description), in order to study the cellular uptake and trafficking.
HUVEC were plated onto 6 mm plates (5×10^5 cells/plate) in EBM-2 (Cambrex, USA) supplemented with 5% FBS. Following 24 hours of incubation (37° C.; 5% CO2), cells were challenged with either PGA-OG, PGA-c(RADfk)-OG (SEQ ID NO: 24) or PGA-E-[c(RGDfk)2]-OG (SEQ ID NO:25) diluted in EGM-2 medium for 5, 10, 15, 30 or 60 minutes. Cells were then washed in PBS (×3), harvested with PBS containing 2.5 mM EDTA and analyzed with the ImageStream 100 imaging flow cytometer (Amnis). Analysis was performed using IDEAS software.

What is called inhibition is the drop in the measured response relative to a control, in per cent. With `CC(=O)O[C@H]1C(=O)[C@@]2(C)[C@H]([C@H](OC(=O)c3ccccc3)[C@]3(O)C[C@H](OC(=O)[C@H](O)[C@@H](NC(=O)c4ccccc4)c4ccccc4)C(C)=C1C3(C)C)[C@]1(OC(C)=O)CO[C@@H]1C[C@@H]2O` [PTX, Paclitaxel], the inhibition at 0.01 µM in assay [1] (Homo sapiens, HUVEC, read-out: inhibition of the formation of tubular structures of HUVEC) is approximately 50%. Further, in assay [2] (free PTX, PGA and combinations, FIG. 15), the “effect on endothelial cell adhesion” value is given as “negligent effect”. Further, the inhibition at 0.1 µM in assay [3] (Homo sapiens, HUVEC) is approximately 55%. The IC50 in assay [4] (Homo sapiens, nM PTX, FIG. 12A, read-out: IC50 of HUVEC proliferation) was approximately 0.01 nM; in assay [4] (Homo sapiens, 72 hours, bis-cyclic RGD compounds (X = 2), NA = did not reach IC50 in the concentrations used, 'a -- b' = bell-shaped curve, read-out: IC50 (nM) of PGA- PTX-E-[c(RGDfk)2] (SEQ ID NO: 18) 2.6 mol % PTX, 5 mol % RGD), 0.01 nM; in assay [4] (Homo sapiens, 72 hours, bis-cyclic RGD compounds (X = 2), NA = did not reach IC50 in the concentrations used, 'a -- b' = bell-shaped curve, read-out: IC50 (nM) of PGA- PTX-E-[c(RGDfk)2] (SEQ ID NO: 18) 5 mol % PTX, 3.9 mol % RGD) it was 0.009 nM; in assay [4] (Homo sapiens, 72 hours, experiment with monocyclic RGD compounds (X = 1), NA = did not reach IC50 in the concentrations used, 'a -- b' = bell-shaped curve, read-out: IC50 (nM) of PGA- PTX-E-c(RGDfk) (SEQ ID NO: 16) 2.1 mol % PTX, 5 mol % RGD), 0.0085 nM; in assay [5] (Homo sapiens, U87, 72 hours, bis-cyclic RGD compounds (X = 2), NA = did not reach IC50 in the concentrations used, 'a -- b' = bell-shaped curve, read-out: IC50 (nM) of PGA- PTX-E-[c(RGDfk)2] (SEQ ID NO: 18) 5 mol % PTX, 3.9 mol % RGD) it was 0.045 nM; in assay [5] (Homo sapiens, nM PTX, equivalent doses, FIG. 12B, read-out: IC50 of U87 proliferation), approximately 0.01 nM. Moreover, the IC50 is approximately 200 nM in assay [6] (Mus musculus, Panc02, nM PTX, equivalent doses, FIG. 12C, read-out: IC50 of PANC02 proliferation) and 200 nM in assay [6] (Mus musculus, PANC02, 72 hours, bis-cyclic RGD compounds (X = 2), NA = did not reach IC50 in the concentrations used, read-out: IC50 (nM) of PGA- PTX-E-[c(RGDfk)2] (SEQ ID NO: 18) 5 mol % PTX, 3.9 mol % RGD).
In the case of “c(RADfk): inactive cyclic peptide RAD, negative control (SEQ ID NO:40) (cyclo(RAD[dF]K); not fully specified (residue 5))”, the “effect of free peptides on HUVEC adhesion” value (shortened to “effect of free peptides”) in assay [2] is “no effect”. For the same compound, the “inhibition of the migration of HUVEC towards VEGF” value in assay [3] is “about 30%”. The “effect on HUVEC proliferation” value in assay [4] (FIG. 12A) is reported as “no effect even at those high concentrations”.
Regarding “PGA-PTX-c(RADfk) (cyclo(RAD[dF]K); not fully specified (residue 5); also: polyglutamic acid polymer conjugate, paclitaxel conjugate)”, the “inhibition of the formation of tubular structures of HUVEC” value in assay [1] is “about 40%”. Moreover, the entries for the “inhibition of HUVEC adhesion to fibrinogen” value in assay [2] (control compared to bis-cyclic RGD-bearing conjugates) and in assay [2] (control compared to monocyclic RGD-bearing conjugate) were approximately 20% and approximately 50%, respectively. The IC50 is 65 nM in assay [5] (U87, 72 hours, bis-cyclic RGD compounds (X = 2), NA = did not reach IC50 in the concentrations used, 'a -- b' = bell-shaped curve, read-out: IC50 (nM) of PGA- PTX-E-[c(RGDfk)2] (SEQ ID NO: 18) 5 mol % PTX, 3.9 mol % RGD); 2600 nM in assay [6] (PANC02, 72 hours, bis-cyclic RGD compounds (X = 2), NA = did not reach IC50 in the concentrations used, read-out: IC50 (nM) of PGA- PTX-E-[c(RGDfk)2] (SEQ ID NO: 18) 5 mol % PTX, 3.9 mol % RGD); approximately 2000 nM in assay [6] (nM PTX, equivalent doses, FIG. 12C, read-out: IC50 of PANC02 proliferation).
“PGA-c(RADfk)-OG (cyclo(RAD[dF]K); not fully specified (residue 5); also: polyglutamic acid polymer conjugate, Oregon Green label)”: the “time at which conjugate-cell adherence was first observed” value in assay [7] (ImageStream 100 imaging flow cytometer) was determined as 15 min. Further, the “extent of binding / uptake by HUVEC” value in assay [7] (OG fluorescence, FIGS. 11B, 11C) is “bound to a much lesser extent”.
In the case of “PGA-c(RADfk) (cyclo(RAD[dF]K); not fully specified (residue 5); also: polyglutamic acid polymer conjugate)”, the IC50 in assay [4] (72 hours, bis-cyclic RGD compounds (X = 2), NA = did not reach IC50 in the concentrations used, 'a -- b' = bell-shaped curve, read-out: IC50 (nM) of PGA- PTX-E-[c(RGDfk)2] (SEQ ID NO: 18) 2.6 mol % PTX, 5 mol % RGD) is 5000 nM; in assay [4] (72 hours, experiment with monocyclic RGD compounds (X = 1), NA = did not reach IC50 in the concentrations used, 'a -- b' = bell-shaped curve, read-out: IC50 (nM) of PGA- PTX-E-c(RGDfk) (SEQ ID NO: 16) 2.1 mol % PTX, 5 mol % RGD), 1000 nM.
As for c[Arg-Gly-Asp-Phe-Lys] [E-c(RGDfk)], the “effect of free peptides” value in assay [2] is listed as “completely abrogated HUVEC adhesion”.
Turning to `N=C(N)NCCC[C@@H]1NC(=O)[C@H](CCCCNC(=O)CC[C@H](N)C(=O)NCCCC[C@@H]2NC(=O)[C@@H](Cc3ccccc3)NC(=O)[C@H](CC(=O)O)NC(=O)CNC(=O)[C@H](CCCNC(=N)N)NC2=O)NC(=O)[C@@H](Cc2ccccc2)NC(=O)[C@H](CC(=O)O)NC(=O)CNC1=O` [E-[c(RGDfk)2]], in assay [2], the “effect of free peptides” value is recorded as “completely abrogated HUVEC adhesion”. Further, in assay [3], the “inhibition of the migration of HUVEC towards VEGF” value is reported as “about 30%”. For the same compound, the “effect on HUVEC proliferation” value in assay [4] (FIG. 12A) is given as “only at high concentrations”.
